Source: the supplement of paper PMC8671470
± gives the standard deviation of the averaged measurements.

Tests used:
Settings in all cases: 72 h
HL-60 [1] = assay: area under dose-response curve (viability, 1 nM-10 uM) (fraction (0-1)); higher = more sensitive
Procedure, shortened: (§1)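 Four-parameter log-logistic fits in drc and PharmacoGx supplied area under the curve where it is given. Underlying viability came from CellTiter-Glo, normalised to DMSO and proteasome-inhibitor wells, with the proteasome inhibitor at 10 μM. HL-60 cells in RPMI 1640 plus 10% FBS had been rescreened against the full library at five tenfold concentrations of 1–10,000 nM, in duplicate on 384-well plates, with DMSO or 100 nM of one of three metabolic inhibitors, for 72 h at 37 °C, 5% CO2.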

HL-60 [2] = assay: cell viability (% survival relative to DMSO control); higher = less cytotoxic
Procedure, shortened: as §1

[3] = tested on: myeloid leukemia patient primary cells Pat.14; assay: area under dose-response curve (viability, 1 nM-10 uM) (fraction (0-1)); higher = more sensitive
Method: (§2)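 AUC (0–1, higher = more sensitive) of the 5-point dose–response (1 nM–10 µM, 72 h, CellTiter-Glo) in primary AML/CML patient mononuclear cells. 0.030103 is the floor for inactive compounds.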

[4] = tested on: myeloid leukemia patient primary cells Pat.11; assay: as above
Method: as §2

[5] = tested on: myeloid leukemia patient primary cells Pat.5; assay: as above
Method: as §2

[6] = tested on: myeloid leukemia patient primary cells Pat.1; assay: as above
Method: as §2

[7] = tested on: myeloid leukemia patient primary cells Pat.7; assay: as above
Method: as §2

[8] = tested on: myeloid leukemia patient primary cells Pat.2; assay: as above
Method: as §2

[9] = tested on: myeloid leukemia patient primary cells Pat.6; assay: as above
Method: as §2

[10] = tested on: myeloid leukemia patient primary cells Pat.9; assay: as above
Method: as §2

[11] = tested on: myeloid leukemia patient primary cells Pat.13; assay: as above
Method: as §2

[12] = tested on: myeloid leukemia patient primary cells Pat.8; assay: as above
Method: as §2

[13] = tested on: myeloid leukemia patient primary cells Pat.10; assay: as above
Method: as §2

[14] = tested on: myeloid leukemia patient primary cells Pat.12; assay: as above
Method: as §2

[15] = tested on: myeloid leukemia patient primary cells Pat.11; assay: cell viability (% survival relative to DMSO control); higher = less cytotoxic
Procedure, shortened: (§3)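 Thawed, Ficoll-purified mononuclear cells from AML or CML patients in RPMI 1640 with 10% FBS were seeded at 10,000 cells/well on 384-well plates pre-printed with 70 compounds at five tenfold concentrations, 1–10,000 nM, in duplicate, for 72 h. Viability was read by CellTiter-Glo and normalised to DMSO and 10 μM proteasome-inhibitor wells. Where given, area under the curve came from four-parameter log-logistic fits (drc, PharmacoGx R packages).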

[16] = tested on: myeloid leukemia patient primary cells Pat.5; assay: as above
Procedure, shortened: as §3

[17] = tested on: myeloid leukemia patient primary cells Pat.1; assay: as above
Procedure, shortened: as §3

[18] = tested on: myeloid leukemia patient primary cells Pat.2; assay: as above
Procedure, shortened: as §3

[19] = tested on: myeloid leukemia patient primary cells Pat.9; assay: as above
Procedure, shortened: as §3

[20] = tested on: myeloid leukemia patient primary cells Pat.13; assay: as above
Procedure, shortened: as §3

CC(C)(CCCCCCCCCCC(C)(C)CC(=O)O)CC(=O)O [MEDICA 16]
HL-60 [1]
Settings | area under dose-response curve
co-treatment: AZD3965 100 nM | < 0.0301
co-treatment: DMSO vehicle | < 0.0301
co-treatment: GSK2194069 100 nM | < 0.0301
co-treatment: pictilisib 100 nM | < 0.0301

cell viability [%], HL-60 [2]
Settings | 0.001 µM | 0.01 µM | 0.1 µM | 1 µM | 10 µM
co-treatment: AZD3965 100 nM | 100 ± 4.3 | 104 ± 9.4 | 105 ± 13 | 101 ± 8.2 | 99.5 ± 3.1
co-treatment: DMSO vehicle | 98.9 ± 3.6 | 98.3 ± 3.4 | 103 ± 3.3 | 101 ± 1.5 | 98 ± 1.4
co-treatment: GSK2194069 100 nM | 101.1 ± 0.91 | 87.2 ± 19 | 99 ± 5.8 | 102 ± 2.8 | 93.201 ± 0.073
co-treatment: pictilisib 100 nM | 97.8 ± 6.5 | 100 ± 6.5 | 93.9 ± 4 | 90 ± 2.5 | 99.96 ± 0.98

Cc1nnc(-c2ccc(N3CCC(Oc4ccccc4C(F)(F)F)CC3)nn2)s1 [MF-438]
Settings | area under dose-response curve
[3] | < 0.0301
[4] | < 0.0301
[5] | 0.232
[6] | < 0.0301
[7] | 0.128
[8] | < 0.0301
[9] | < 0.0301
[10] | < 0.0301
[11] | < 0.0301
[12] | < 0.0301
[13] | < 0.0301
[14] | < 0.0301

Settings | area under dose-response curve, co-treatment: AZD3965 100 nM | area under dose-response curve, co-treatment: DMSO vehicle | area under dose-response curve, co-treatment: GSK2194069 100 nM | area under dose-response curve, co-treatment: pictilisib 100 nM | cell viability, 1 nM [%] | cell viability, 10 nM [%] | cell viability, 100 nM [%] | cell viability, 1000 nM [%] | cell viability, 10000 nM [%]
HL-60 [1] | < 0.0301 | < 0.0301 | < 0.0301 | < 0.0301 | – | – | – | – | –
[15] | – | – | – | – | 94 | 96.6 | > 100 | > 100 | 90.6
[16] | – | – | – | – | 32.8 | 93.8 | 67.7 | 46.4 | 27.4
[17] | – | – | – | – | 78.8 | 85.8 | 97.1 | 90.5 | 82.8
[18] | – | – | – | – | > 100 | 99.8 | 95.4 | 87.6 | 89.7
[19] | – | – | – | – | 56.2 | 91.2 | 87.2 | 69.3 | 75.2
[20] | – | – | – | – | 86.8 | 86.4 | 86.9 | 80.8 | 97.4

cell viability [%], HL-60 [2]
Settings | 0.001 µM | 0.01 µM | 0.1 µM | 1 µM | 10 µM
co-treatment: AZD3965 100 nM | 88.9 ± 8.7 | 99.9 ± 1.6 | 104 ± 2.1 | 101 ± 0.18 | 89.8 ± 4.6
co-treatment: DMSO vehicle | 101 ± 14 | 101.6 ± 0.88 | 102 ± 4 | 100 ± 3.9 | 94.9 ± 1.6
co-treatment: GSK2194069 100 nM | 92.9 ± 23 | 104 ± 5.6 | 93.3 ± 0.56 | 101 ± 3.9 | 86.5 ± 1.9
co-treatment: pictilisib 100 nM | 109 ± 2.6 | 106 ± 2.9 | 100 ± 1.9 | 94.07 ± 0.88 | 98.1 ± 7.1

CC(C)c1ccc2c(c1)c(SC(C)(C)C)c(CC(C)(C)C(=O)O)n2Cc1ccc(Cl)cc1 [MK-886]
HL-60 [1]
Settings | area under dose-response curve
co-treatment: AZD3965 100 nM | < 0.0301
co-treatment: DMSO vehicle | < 0.0301
co-treatment: GSK2194069 100 nM | < 0.0301
co-treatment: pictilisib 100 nM | < 0.0301

cell viability [%], HL-60 [2]
Settings | 0.001 µM | 0.01 µM | 0.1 µM | 1 µM | 10 µM
co-treatment: AZD3965 100 nM | 105 ± 4.8 | 95.8 ± 12 | 108 ± 7.9 | 99.8 ± 2 | 102 ± 3.9
co-treatment: DMSO vehicle | 103 ± 0.78 | 99.9 ± 1.5 | 104.5 ± 0.84 | 107 ± 2.3 | 109.9 ± 1
co-treatment: GSK2194069 100 nM | 104 ± 2.2 | 98.8 ± 5.2 | 105 ± 13 | 97.5 ± 1.7 | 94.4 ± 7.3
co-treatment: pictilisib 100 nM | 105 ± 12 | 98.1 ± 1.9 | 109 ± 11 | 98.9 ± 5.2 | 108 ± 2.2

O=C(CCl)N(CCCNC(=O)C(F)(F)F)c1ccc([N+](=O)[O-])cc1 [ML175]
HL-60 [1]
Settings | area under dose-response curve
co-treatment: AZD3965 100 nM | 0.125
co-treatment: DMSO vehicle | 0.133
co-treatment: GSK2194069 100 nM | 0.14
co-treatment: pictilisib 100 nM | 0.136

cell viability [%], HL-60 [2]
Settings | 0.001 µM | 0.01 µM | 0.1 µM | 1 µM | 10 µM
co-treatment: AZD3965 100 nM | 103 ± 2.1 | 100 ± 1.6 | 102.27 ± 0.062 | 104 ± 5.7 | 0.129 ± 0.42
co-treatment: DMSO vehicle | 104 ± 5.9 | 103 ± 1.5 | 99.79 ± 0.16 | 99.8 ± 6 | -1.45 ± 0.48
co-treatment: GSK2194069 100 nM | 100 ± 1.6 | 92.97 ± 0.7 | 98.3 ± 4.5 | 95.2 ± 5.3 | -1.73 ± 0.33
co-treatment: pictilisib 100 nM | 101 ± 6.9 | 94.4 ± 3.7 | 98.5 ± 3.1 | 95.1 ± 3.8 | 1.1 ± 1.7

CN(C)C(=N)NC(=N)N [Metformin]
HL-60 [1]
Settings | area under dose-response curve
co-treatment: AZD3965 100 nM | < 0.0301
co-treatment: DMSO vehicle | < 0.0301
co-treatment: GSK2194069 100 nM | < 0.0301
co-treatment: pictilisib 100 nM | < 0.0301

cell viability [%], HL-60 [2]
Settings | 0.001 µM | 0.01 µM | 0.1 µM | 1 µM | 10 µM
co-treatment: AZD3965 100 nM | 94.9 ± 4 | 99 ± 5.4 | 103 ± 2.1 | 94.9 ± 1.5 | 100 ± 2.3
co-treatment: DMSO vehicle | 101.9 ± 0.7 | 95.8 ± 5.8 | 102.3 ± 0.63 | 95.9 ± 1.7 | 96.73 ± 0.68
co-treatment: GSK2194069 100 nM | 98.7 ± 11 | 98 ± 11 | 109 ± 9.2 | 94 ± 3.7 | 106 ± 8.9
co-treatment: pictilisib 100 nM | 92 ± 24 | 111 ± 21 | 120 ± 10 | 96.7 ± 6.3 | 104 ± 14

Cl.OC[C@H]1NC[C@H](O)[C@@H](O)[C@H]1O [Migalastat]
HL-60 [1]
Settings | area under dose-response curve
co-treatment: AZD3965 100 nM | < 0.0301
co-treatment: DMSO vehicle | < 0.0301
co-treatment: GSK2194069 100 nM | < 0.0301
co-treatment: pictilisib 100 nM | < 0.0301

cell viability [%], HL-60 [2]
Settings | 0.001 µM | 0.01 µM | 0.1 µM | 1 µM | 10 µM
co-treatment: AZD3965 100 nM | 106 ± 1.8 | 108 ± 2.8 | 102.1 ± 0.12 | 106 ± 2.9 | 102 ± 6.1
co-treatment: DMSO vehicle | 103 ± 1.2 | 103 ± 8.1 | 96.5 ± 2.1 | 100 ± 1.6 | 95.4 ± 4.5
co-treatment: GSK2194069 100 nM | 106 ± 1.1 | 110 ± 3.4 | 104 ± 6 | 103 ± 8.2 | 94.79 ± 0.12
co-treatment: pictilisib 100 nM | 102 ± 4.4 | 112 ± 3.5 | 99.4 ± 5.2 | 106 ± 5.2 | 94.1 ± 11
